Data on two compounds can be found in publication PMC6503114, “Application of Antimicrobial Peptides of the Innate Immune System in Combination With Conventional Antibiotics—A Novel Way to Combat Antibiotic Resistance?” (Frontiers in Cellular and Infection Microbiology, 2019).

In one assay the test system is bacteria. The assay can be described thus: Checkerboard titration, synergy cases with conventional antibiotics (all tested bacteria). The format is cell-based. The note with it: in vitro, human AMPs. On the procedure:
(§1) According to checkerboard titration template, one component (A) of the combination was diluted along the rows of the plate, while the other (B) was diluted down the columns, thereby creating the variety of mixtures with different concentrations of tested compounds. 2.5 μl of corresponding solutions of the components A and B were added into each well of the plate. Into the first column and the last row the same amount of 10 mM sodium phosphate buffer, pH 7.4, containing 0.1% of BSA was introduced instead of the second component. Thus, all wells contained 5 μl of antimicrobial compounds solutions (solo or in combination). The same volume of bacterial suspension, prepared as described for microdilution assay, was added into each well. The results were recorded after the overnight incubation, visually indicating the presence or absence of the microbial growth in the corresponding wells. Based on the obtained data the isobolograms of combined action were plotted and/or Fractional Inhibitory Concentration Indices (FICI) were calculated. […] Depending on the minimal value of the FICI the combined effect of the combination was classified as antagonism (FICI > 2), independent action (1 < FICI ≤ 2), additivity (0.5 < FICI ≤ 1) or synergy (FICI ≤ 0.5), as is recommended in the literature and due to some drawbacks of the serial dilution method (Hsieh et al., [1993]; Orhan et al., [2005]; Fehri et al., [2007]). FICIs were assessed in 3–6 independent experiments and median values were used to define the nature of interaction.

A further assay concerns MRSA ATCC 33591. It counts as cell-based, Staphylococcus aureus. How it is done:
as §1

The next assay relates to M. luteus CIP A270. The format is cell-based, Micrococcus luteus. On the procedure:
as §1

For a further assay, the system named is E. coli ML-35p. It counts as cell-based, Escherichia coli. How it is done:
as §1

Assay [1] deals with A. baumannii (clin. isol.). It counts as cell-based, Acinetobacter baumannii. Conditions: AMP in combination with GEN (gentamicin). How it is done: According to checkerboard titration template, one component (A) of the combination was diluted along the rows of the plate, while the other (B) was diluted down the columns, thereby creating the variety of mixtures with different concentrations of tested compounds. 2.5 μl of corresponding solutions of the components A and B were added into each well of the plate. Into the first column and the last row the same amount of 10 mM sodium phosphate buffer, pH 7.4, containing 0.1% of BSA was introduced instead of the second component. Thus, all wells contained 5 μl of antimicrobial compounds solutions (solo or in combination). The same volume of bacterial suspension, prepared as described for microdilution assay, was added into each well. The results were recorded after the overnight incubation, visually indicating the presence or absence of the microbial growth in the corresponding wells. Based on the obtained data the isobolograms of combined action were plotted and/or Fractional Inhibitory Concentration Indices (FICI) were calculated. […] FICIs were assessed in 3–6 independent experiments and median values were used to define the nature of interaction.

Setting [2] is: AMP in combination with GEN (gentamicin).
Setting [3] is: AMP in combination with OX (oxacillin).
Setting [4] is: AMP in combination with PMB (polymyxin B).
The mark [5] stands for this setting: AMP in combination with RIF (rifampicin).

Like-named read-outs stand apart in the source and are kept apart here.

Take `CC[C@H](C)[C@H](NC(=O)[C@H](CCCCN)NC(=O)[C@H](CCC(=O)O)NC(=O)[C@H](CCCCN)NC(=O)[C@H](CO)NC(=O)[C@H](CCCCN)NC(=O)[C@H](CCCNC(=N)N)NC(=O)[C@H](Cc1ccccc1)NC(=O)[C@H](Cc1ccccc1)NC(=O)[C@H](CC(=O)O)NC(=O)CNC(=O)[C@H](CC(C)C)NC(=O)[C@@H](N)CC(C)C)C(=O)NCC(=O)N[C@@H](CCCCN)C(=O)N[C@@H](CCC(=O)O)C(=O)N[C@@H](Cc1ccccc1)C(=O)N[C@@H](CCCCN)C(=O)N[C@@H](CCCNC(=N)N)C(=O)N[C@H](C(=O)N[C@H](C(=O)N[C@@H](CCC(N)=O)C(=O)N[C@@H](CCCNC(=N)N)C(=O)N[C@H](C(=O)N[C@@H](CCCCN)C(=O)N[C@@H](CC(=O)O)C(=O)N[C@@H](Cc1ccccc1)C(=O)N[C@@H](CC(C)C)C(=O)N[C@@H](CCCNC(=N)N)C(=O)N[C@@H](CC(N)=O)C(=O)N[C@@H](CC(C)C)C(=O)N[C@H](C(=O)N1CCC[C@H]1C(=O)N[C@@H](CCCNC(=N)N)C(=O)N[C@H](C(=O)N[C@@H](CCC(=O)O)C(=O)N[C@@H](CO)C(=O)O)[C@@H](C)O)C(C)C)[C@@H](C)CC)C(C)C)[C@@H](C)CC` [LL-37]: the “AMP concentration in synergy cases with conventional antibiotics” value with bacteria is on record as “around 150 nM”.
On to “Lysozyme: egg white lysozyme, antimicrobial protein, from BioChemica”, for which the “Minimal FICI” value in the assay on MRSA ATCC 33591 (setting [2]) is on record as 0.53; in the assay with MRSA ATCC 33591 (setting [3]), 0.53; in the assay on MRSA ATCC 33591 (setting [4]), 0.56; in the assay on MRSA ATCC 33591 (setting [5]), 0.62; in the assay on M. luteus CIP A270 (setting [2]), 0.62; in the assay with M. luteus CIP A270 (AMP in combination with OFL (ofloxacin)), 0.62. The “Minimal FICI” value in the assay with M. luteus CIP A270 (setting [3]) amounted to 0.75; with M. luteus CIP A270 (setting [4]), 0.62; with M. luteus CIP A270 (setting [5]), 0.75; with E. coli ML-35p (setting [2]), 0.53; in the assay with E. coli ML-35p (setting [4]), 0.25; in the assay with E. coli ML-35p (setting [5]), 0.62. Moreover, the “Minimal FICI” value in assay [1] was determined as 0.75.
